Measured values from patent US7427627B2, “N-(4-(4-methylthiazol-5-yl) pyrimidin-2-yl)-N-phenylamines as antiproliferative compounds” (Cyclacel Limited, priority 2001, dated 2008).
Read-outs that look alike come from different tables or passages of the source.

Legend:
[1] = test system: CCRF-CEM; experiment: 72-h MTT assay, CCRF-CEM; assay type: cell-based; settings: Homo sapiens, read-out: 72-h MTT IC50 CCRF-CEM, Table 3, Leukaemia
Procedure: (§1) The compounds from the examples above were subjected to a standard cellular proliferation assay using human tumour cell lines obtained from the ATCC (American Type Culture Collection, 10801 University Boulevard, Manessas, Va. 20110-2209, USA). Standard 72-h MTT (thiazolyl blue; 3-[4,5-dimethylthiazol-2-yl]-2,5-diphenyltetrazolium bromide) assays were performed (Haselsberger, K.; Peterson, D. C.; Thomas, D. G.; Darling, J. L. Anti Cancer Drugs 1996, 7, 331-8; Loveland, B. E.; Johns, T. G.; Mackay, I. R.; Vaillant, F.; Wang, Z. X.; Hertzog, P. J. Biochemistry International 1992, 27, 501-10). In short: cells were seeded into 96-well plates according to doubling time and incubated overnight at 37° C. Test compounds were made up in DMSO and a 1/3 dilution series prepared in 100 μL cell media, added to cells (in triplicates) and incubated for 72 ho at 37° C. MTT was made up as a stock of 5 mg/mL in cell media and filter-sterilised. Media was removed from cells followed by a wash with 200 μL PBS. MTT solution was then added at 20 μL per well and incubated in the dark at 37° C. for 4 h. MTT solution was removed and cells again washed with 200 μL PBS. MTT dye was solubilised with 200 μL per well of DMSO with agitation.

[2] = test system: U2OS; experiment: 72-h MTT assay, U2OS; assay type: cell-based; settings: Homo sapiens, read-out: 72-h MTT IC50 U2OS, Table 3, Bone osteosarcoma
Procedure: as §1

[3] = test system: SJSA-1; experiment: 72-h MTT assay, SJSA-1; assay type: cell-based; settings: Homo sapiens, SJSA-1, 72 h, read-out: 72-h MTT IC50 SJSA-1; Table 3; Osteogenic sarcoma
Procedure: as §1

[4] = test system: HT29; experiment: 72-h MTT cytotoxicity assay, HT29; assay type: cell-based; settings: Homo sapiens
Procedure: as §1

[5] = test system: HCT-116; experiment: 72-h MTT assay, HCT-116; assay type: cell-based; settings: Homo sapiens, HCT-116, 72 h, read-out: 72-h MTT IC50 HCT-116; Table 3; Colon
Procedure: as §1

[6] = test system: Hs27; experiment: 72-h MTT assay, Hs27; assay type: cell-based; settings: Homo sapiens, HS27, 72 h, read-out: 72-h MTT IC50 Hs27; Table 3; Foreskin fibroblast (non-transformed)
Procedure: as §1

[7] = test system: H1299; experiment: 72-h MTT assay, H1299; assay type: cell-based; settings: Homo sapiens, NCI-H1299, 72 h, read-out: 72-h MTT IC50 H1299; Table 3; Lung
Procedure: as §1

[8] = target: CDK4/cyclin D1 (Homo sapiens, UniProt P11802); experiment: Kinase assay CDK4/cyclin D1;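 note: Enzyme: His6-tagged recombinant human CDK4 produced in baculovirus-infected Sf9 insect cells and purified by metal-chelate chromatography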
[9] = test system: K562; experiment: 72-h MTT assay, K562; assay type: cell-based; settings: Homo sapiens, K562, 72 h, read-out: 72-h MTT IC50 K562; Table 3; Chronic myelogenous leukaemia
Procedure: as §1

[10] = test system: Hacat; experiment: 72-h MTT assay, Hacat; assay type: cell-based; settings: Homo sapiens, read-out: 72-h MTT IC50 Hacat, Table 3, Skin keratinocytes
Procedure: as §1

[11] = test system: SK-N-MC; experiment: 72-h MTT assay, SK-N-MC; assay type: cell-based; settings: Homo sapiens, read-out: 72-h MTT IC50 SK-N-MC, Table 3, Neuroblastoma
Procedure: as §1

[12] = test system: Saos-2; experiment: 72-h MTT cytotoxicity assay, Saos-2; assay type: cell-based; settings: Homo sapiens
Procedure: as §1

[13] = test system: DU-145; experiment: 72-h MTT assay, DU-145; assay type: cell-based; settings: Homo sapiens, DU-145, 72 h, read-out: 72-h MTT IC50 DU-145; Table 3; Prostate
Procedure: as §1

[14] = target: T1, CDK2/cyclin E (Homo sapiens, UniProt P24941); experiment: Kinase assay CDK2/cyclin E; assay type: biochemical; settings: Table 1; read-out: Kinase inhibition, IC50 (μM) CDK2/E
T1 construct: His6

[15] = test system: A549; experiment: 72-h MTT cytotoxicity assay, A549; assay type: cell-based, human; settings: Homo sapiens
Procedure: In short: cells were seeded into 96-well plates according to doubling time and incubated overnight at 37° C. Test compounds were made up in DMSO and a 1/3 dilution series prepared in 100 μL cell media, added to cells (in triplicates) and incubated for 72 ho at 37° C. MTT was made up as a stock of 5 mg/mL in cell media and filter-sterilised. Media was removed from cells followed by a wash with 200 μL PBS. MTT solution was then added at 20 μL per well and incubated in the dark at 37° C. for 4 h. MTT solution was removed and cells again washed with 200 μL PBS. MTT dye was solubilised with 200 μL per well of DMSO with agitation.

[16] = test system: Lovo; experiment: 72-h MTT assay, Lovo; assay type: cell-based; settings: Homo sapiens, read-out: 72-h MTT IC50 Lovo, Table 3, Colon
Procedure: as §1

[17] = test system: AGS; experiment: 72-h MTT assay, AGS; assay type: cell-based; settings: Homo sapiens, read-out: 72-h MTT IC50 AGS, Table 3, Gastric adenocarcinoma
Procedure: as §1

[18] = test system: Hela; experiment: 72-h MTT assay, Hela; assay type: cell-based; settings: Homo sapiens, read-out: 72-h MTT IC50 Hela, Table 3, Cervix
Procedure: as §1

[19] = test system: Messa; experiment: 72-h MTT assay, Messa; assay type: cell-based; settings: Homo sapiens, MES-SA, read-out: 72-h MTT IC50 Messa, Table 3, Uterine
Procedure: as §1

[20] = test system: SKUT-1B; experiment: 72-h MTT assay, SKUT-1B; assay type: cell-based; settings: Homo sapiens, Skut1B, read-out: 72-h MTT IC50 SKUT-1B, Table 3, Leiomyosarcoma
Procedure: as §1

[21] = test system: WI38; experiment: 72-h MTT assay, WI38; assay type: cell-based; settings: Homo sapiens, WI-38, 72 h, read-out: 72-h MTT IC50 WI38; Table 3; Foetal lung (non-transformed)
Procedure: as §1

[22] = test system: MCF-7; experiment: 72-h MTT assay, MCF-7; assay type: cell-based; settings: Homo sapiens, MCF7, 72 h, read-out: 72-h MTT IC50 MCF-7; Table 3; Breast
Procedure: as §1

[23] = test system: HL60; experiment: 72-h MTT assay, HL60; assay type: cell-based; settings: Homo sapiens, HL-60, 72 h, read-out: 72-h MTT IC50 HL60; Table 3; Promyelocytic leukaemia
Procedure: as §1

[24] = test system: tumour cells; experiment: 72-h MTT assay, mean over tumour cell lines; assay type: cell-based; settings: Homo sapiens, Table 3
Procedure: as §1

[25] = test system: nci-H460; experiment: 72-h MTT assay, nci-H460; assay type: cell-based; settings: Homo sapiens, NCI-H460, 72 h, read-out: 72-h MTT IC50 nci-H460; Table 3; Lung
Procedure: as §1

[26] = test system: IMR-90; experiment: 72-h MTT assay, IMR-90; assay type: cell-based; settings: Homo sapiens, IMR-90, 72 h, read-out: 72-h MTT IC50 IMR-90; Table 3; Foetal lung fibroblast (non-transformed)
Procedure: as §1

[27] = test system: SKUT-1; experiment: 72-h MTT assay, SKUT-1; assay type: cell-based; settings: Homo sapiens, SK-UT-1, 72 h, read-out: 72-h MTT IC50 SKUT-1; Table 3; Leiomyosarcoma
Procedure: as §1

[28] = test system: Messa-Dx5; experiment: 72-h MTT assay, Messa-Dx5; assay type: cell-based; settings: Homo sapiens, MES-SA/Dx5, 72 h, read-out: 72-h MTT IC50 Messa-Dx5; Table 3; Uterine
Procedure: as §1

[29] = target: polo-like kinase 1 (Homo sapiens, UniProt P53350); experiment: Kinase specificity assay Plk1; assay type: biochemical; settings: Table 2
[30] = target: protein kinase B (Homo sapiens, UniProt P31749); experiment: Kinase specificity assay Akt/PKB; assay type: biochemical; settings: Table 2
[31] = target: calmodulin-dependent kinase II; settings: read-out: Kinase specificity IC50 Cam-KII; Table 2
[32] = target: T2, protein kinase C α (Homo sapiens, UniProt P17252); experiment: Kinase specificity assay PKCα; assay type: biochemical; settings: Table 2
T2 construct: His6
Procedure: PKCα kinase activity may be measured by the incorporation of radio-labeled phosphate in Histone 3, as described. The reaction mixture (total volume 65 μl) consist of 50 mM Tris-HCl, 1 mM Calcium acetate, 3 mM DTT, 0.03 mg/ml Phosphatidylserine, 2.4 μg/ml PMA, 0.04% NP40, 12 mM Mg/Cl, purified PKCα-100 ng, Histone 3, 0.2 mg/ml, 100 μM ATP, 0.2 μCi [γ-^32P]-ATP. The reaction is carried over 15 min at 37° C. in microplate shaker and is stopped by adding 10 μl 75 mM orthophosphoric acid and placing the plate on ice. 50 μl of the reaction mixture is transferred onto P81 filterplate and after washing off the free radioactive phosphate (3 times with 200 μl 75 mM orthophosphoric acid per well) 50 μl of scintillation liquid (Microscint 40) were added to each well and the radioactivity is measured on Scintillation counter (Topcount, HP).

[33] = target: stress-activated protein kinase 2a (Homo sapiens, UniProt Q16539); experiment: Kinase specificity assay SAPK2a; assay type: biochemical; settings: Table 2
[34] = target: p70 ribosomal protein S6 kinase (Homo sapiens, UniProt P23443); experiment: Kinase specificity assay p70-S6K; assay type: biochemical; settings: Table 2
[35] = target: Ableson tyrosine kinase (Homo sapiens, UniProt P00519); experiment: Kinase specificity assay Abl; assay type: biochemical; settings: Table 2
[36] = target: glycogen synthase kinase 3β (Homo sapiens, UniProt P49841); experiment: Kinase specificity assay GSK3β; assay type: biochemical; settings: Table 2
[37] = target: T3, CDK1-cyclin B1 complex (Homo sapiens, UniProt P06493); experiment: Kinase specificity assay CDK1/B1; assay type: biochemical; settings: Table 2
T3 construct: His6

[38] = target: CDK7-cyclin H-MAT 1 complex (Homo sapiens, UniProt P50613); experiment: Kinase specificity assay CDK7/H; assay type: biochemical; settings: Table 2
[39] = target: extracellular-signal-regulated kinase 2 (Homo sapiens, UniProt P28482); experiment: Kinase specificity assay ERK-2; assay type: biochemical; settings: Table 2
[40] = HT-29, 72 h, read-out: 72-h MTT IC50 HT29, Table 3, Colon
[41] = HT-29, read-out: 72-h MTT in vitro IC50 (μM) HT29, Table 1, 72 h
[42] = SAOS-2, 72 h, read-out: 72-h MTT IC50 Saos-2, Table 3, Bone osteosarcoma
[43] = SAOS-2, read-out: 72-h MTT in vitro IC50 (μM) Saos-2, Table 1, 72 h
[44] = A549, 72 h, read-out: 72-h MTT IC50 A549, Table 3, Lung
[45] = A549, read-out: 72-h MTT in vitro IC50 (μM) A549, Table 1, 72 h

Sequence of CDK4/cyclin D1 (P11802 whole entry): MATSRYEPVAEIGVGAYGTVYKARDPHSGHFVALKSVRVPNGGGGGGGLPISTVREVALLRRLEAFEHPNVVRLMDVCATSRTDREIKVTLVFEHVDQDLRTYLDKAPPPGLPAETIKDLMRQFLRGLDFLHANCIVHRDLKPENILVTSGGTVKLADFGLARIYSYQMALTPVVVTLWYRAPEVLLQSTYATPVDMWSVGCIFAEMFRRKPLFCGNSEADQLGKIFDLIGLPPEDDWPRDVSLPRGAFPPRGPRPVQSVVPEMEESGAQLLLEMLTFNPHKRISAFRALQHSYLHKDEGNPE
Sequence of CDK4/cyclin D1 (P24385 whole entry partner): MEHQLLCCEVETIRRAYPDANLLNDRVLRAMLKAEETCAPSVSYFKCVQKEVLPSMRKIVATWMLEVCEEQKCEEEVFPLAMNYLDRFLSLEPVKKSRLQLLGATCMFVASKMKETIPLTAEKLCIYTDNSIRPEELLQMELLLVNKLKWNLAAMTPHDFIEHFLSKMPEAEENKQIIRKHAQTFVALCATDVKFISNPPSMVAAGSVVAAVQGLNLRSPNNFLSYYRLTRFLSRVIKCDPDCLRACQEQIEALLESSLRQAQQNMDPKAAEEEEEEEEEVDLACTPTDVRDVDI
Sequence of p70 ribosomal protein S6 kinase (P23443 24-525): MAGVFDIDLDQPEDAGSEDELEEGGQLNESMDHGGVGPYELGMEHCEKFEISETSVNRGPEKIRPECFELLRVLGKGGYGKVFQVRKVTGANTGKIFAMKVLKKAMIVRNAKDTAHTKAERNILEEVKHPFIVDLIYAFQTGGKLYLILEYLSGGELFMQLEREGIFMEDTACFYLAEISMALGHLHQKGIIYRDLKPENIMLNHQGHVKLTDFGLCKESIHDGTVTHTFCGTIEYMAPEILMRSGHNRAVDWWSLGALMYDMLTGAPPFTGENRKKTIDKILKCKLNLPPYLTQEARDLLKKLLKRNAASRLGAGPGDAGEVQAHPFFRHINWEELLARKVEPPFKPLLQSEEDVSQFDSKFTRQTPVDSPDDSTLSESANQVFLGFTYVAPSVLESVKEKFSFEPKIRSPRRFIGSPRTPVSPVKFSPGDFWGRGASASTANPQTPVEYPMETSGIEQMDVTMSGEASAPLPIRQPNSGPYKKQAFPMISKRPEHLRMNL
Sequence of protein kinase B (P31749 whole entry): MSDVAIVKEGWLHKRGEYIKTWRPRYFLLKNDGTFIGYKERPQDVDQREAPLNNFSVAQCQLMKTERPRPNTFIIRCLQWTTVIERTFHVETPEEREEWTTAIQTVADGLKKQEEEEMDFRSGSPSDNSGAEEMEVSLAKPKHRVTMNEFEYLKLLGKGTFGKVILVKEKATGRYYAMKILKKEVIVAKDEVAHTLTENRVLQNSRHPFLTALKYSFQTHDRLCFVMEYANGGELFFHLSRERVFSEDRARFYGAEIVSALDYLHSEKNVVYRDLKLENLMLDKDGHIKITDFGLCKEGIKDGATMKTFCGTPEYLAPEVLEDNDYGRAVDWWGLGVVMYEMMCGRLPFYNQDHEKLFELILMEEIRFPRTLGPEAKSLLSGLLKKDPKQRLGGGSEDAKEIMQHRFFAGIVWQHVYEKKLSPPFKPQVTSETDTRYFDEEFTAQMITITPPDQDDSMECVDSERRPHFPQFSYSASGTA
Sequence of glycogen synthase kinase 3β (P49841 whole entry): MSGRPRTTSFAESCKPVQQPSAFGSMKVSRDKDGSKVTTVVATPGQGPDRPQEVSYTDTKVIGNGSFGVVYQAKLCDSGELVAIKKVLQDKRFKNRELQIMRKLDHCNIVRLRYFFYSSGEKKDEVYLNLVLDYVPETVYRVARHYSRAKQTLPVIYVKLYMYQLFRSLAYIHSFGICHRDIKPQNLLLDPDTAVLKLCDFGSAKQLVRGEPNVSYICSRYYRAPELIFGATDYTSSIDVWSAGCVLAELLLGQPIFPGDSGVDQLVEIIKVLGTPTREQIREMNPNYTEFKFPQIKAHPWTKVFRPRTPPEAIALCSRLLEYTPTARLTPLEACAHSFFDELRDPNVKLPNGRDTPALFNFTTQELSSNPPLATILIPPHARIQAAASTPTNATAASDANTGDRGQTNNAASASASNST
T3 sequence (P06493 whole entry): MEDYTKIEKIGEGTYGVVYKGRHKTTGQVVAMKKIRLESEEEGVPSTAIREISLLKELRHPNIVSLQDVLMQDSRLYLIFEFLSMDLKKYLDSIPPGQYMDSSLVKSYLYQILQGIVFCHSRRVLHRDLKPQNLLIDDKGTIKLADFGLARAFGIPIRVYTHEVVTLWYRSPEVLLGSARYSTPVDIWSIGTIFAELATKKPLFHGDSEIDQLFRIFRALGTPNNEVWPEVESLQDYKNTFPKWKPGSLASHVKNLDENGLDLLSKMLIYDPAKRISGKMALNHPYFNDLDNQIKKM
T3 sequence (P14635 whole entry partner): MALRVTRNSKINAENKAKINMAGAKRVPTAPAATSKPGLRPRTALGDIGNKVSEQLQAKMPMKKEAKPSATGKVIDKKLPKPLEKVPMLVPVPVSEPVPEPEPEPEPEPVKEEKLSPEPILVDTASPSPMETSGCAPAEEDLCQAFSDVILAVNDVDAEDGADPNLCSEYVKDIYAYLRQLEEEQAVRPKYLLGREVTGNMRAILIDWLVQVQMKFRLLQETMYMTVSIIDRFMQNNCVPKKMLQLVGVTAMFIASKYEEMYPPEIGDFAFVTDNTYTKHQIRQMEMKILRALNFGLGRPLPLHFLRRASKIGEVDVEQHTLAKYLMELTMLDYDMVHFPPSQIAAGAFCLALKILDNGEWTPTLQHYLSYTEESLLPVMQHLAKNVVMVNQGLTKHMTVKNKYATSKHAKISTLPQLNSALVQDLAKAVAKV
Sequence of polo-like kinase 1 (P53350 whole entry): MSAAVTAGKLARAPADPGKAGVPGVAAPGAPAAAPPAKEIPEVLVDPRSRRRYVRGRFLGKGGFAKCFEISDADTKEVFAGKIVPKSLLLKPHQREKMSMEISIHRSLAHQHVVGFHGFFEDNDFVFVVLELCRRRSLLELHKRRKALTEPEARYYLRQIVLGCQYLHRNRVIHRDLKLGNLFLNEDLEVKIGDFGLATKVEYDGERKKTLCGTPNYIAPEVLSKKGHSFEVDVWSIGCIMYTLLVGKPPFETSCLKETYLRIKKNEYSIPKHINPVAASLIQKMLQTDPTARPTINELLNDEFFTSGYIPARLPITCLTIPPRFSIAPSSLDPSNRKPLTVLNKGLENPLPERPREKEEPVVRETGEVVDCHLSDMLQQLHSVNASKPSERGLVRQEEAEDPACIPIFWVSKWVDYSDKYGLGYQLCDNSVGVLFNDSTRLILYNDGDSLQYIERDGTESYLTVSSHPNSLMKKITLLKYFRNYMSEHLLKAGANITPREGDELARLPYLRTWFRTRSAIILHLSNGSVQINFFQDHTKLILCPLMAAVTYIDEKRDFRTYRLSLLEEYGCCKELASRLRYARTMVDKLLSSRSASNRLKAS
Sequence of CDK7-cyclin H-MAT 1 complex (P50613 whole entry): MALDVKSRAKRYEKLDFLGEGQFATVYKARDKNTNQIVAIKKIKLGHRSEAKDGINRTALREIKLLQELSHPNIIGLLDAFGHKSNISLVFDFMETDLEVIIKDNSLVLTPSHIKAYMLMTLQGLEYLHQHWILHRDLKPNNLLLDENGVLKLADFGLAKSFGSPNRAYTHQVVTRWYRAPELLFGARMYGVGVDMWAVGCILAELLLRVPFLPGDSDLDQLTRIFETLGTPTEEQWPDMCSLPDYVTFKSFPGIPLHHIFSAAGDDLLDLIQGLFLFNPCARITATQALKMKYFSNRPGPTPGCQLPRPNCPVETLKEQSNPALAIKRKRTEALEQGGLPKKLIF
Sequence of CDK7-cyclin H-MAT 1 complex (P51946 whole entry partner): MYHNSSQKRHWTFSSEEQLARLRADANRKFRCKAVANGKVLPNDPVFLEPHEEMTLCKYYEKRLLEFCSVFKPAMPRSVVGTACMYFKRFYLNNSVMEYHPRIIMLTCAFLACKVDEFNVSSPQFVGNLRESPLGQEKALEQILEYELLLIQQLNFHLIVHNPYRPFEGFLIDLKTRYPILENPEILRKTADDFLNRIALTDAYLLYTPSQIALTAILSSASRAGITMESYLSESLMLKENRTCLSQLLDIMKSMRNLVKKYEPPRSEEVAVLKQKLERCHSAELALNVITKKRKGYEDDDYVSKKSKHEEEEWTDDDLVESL
Sequence of CDK7-cyclin H-MAT 1 complex (P51948 whole entry partner): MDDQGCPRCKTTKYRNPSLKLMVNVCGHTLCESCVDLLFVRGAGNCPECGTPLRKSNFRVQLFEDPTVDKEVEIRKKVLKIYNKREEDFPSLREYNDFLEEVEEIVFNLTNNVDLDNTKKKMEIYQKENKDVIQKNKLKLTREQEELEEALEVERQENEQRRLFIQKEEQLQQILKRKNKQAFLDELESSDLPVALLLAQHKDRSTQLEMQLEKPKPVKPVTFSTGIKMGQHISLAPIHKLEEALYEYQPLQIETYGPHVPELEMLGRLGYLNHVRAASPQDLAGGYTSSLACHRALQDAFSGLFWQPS
Sequence of stress-activated protein kinase 2a (Q16539 whole entry): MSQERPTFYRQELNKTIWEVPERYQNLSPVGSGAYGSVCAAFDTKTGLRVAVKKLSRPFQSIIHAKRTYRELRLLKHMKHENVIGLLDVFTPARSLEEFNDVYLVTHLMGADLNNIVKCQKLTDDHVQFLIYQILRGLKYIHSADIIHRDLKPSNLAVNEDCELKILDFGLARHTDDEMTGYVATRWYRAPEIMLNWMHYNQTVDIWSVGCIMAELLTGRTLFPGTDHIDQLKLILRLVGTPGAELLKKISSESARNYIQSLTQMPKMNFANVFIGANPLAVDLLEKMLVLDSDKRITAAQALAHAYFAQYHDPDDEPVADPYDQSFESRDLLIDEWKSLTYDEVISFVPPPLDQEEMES

SMILES | IC50 [1] | IC50 [3] | IC50 [4, 40] | IC50 [4, 41] | IC50 [5] | IC50 [6] | IC50 [7] | IC50 [8] | IC50 [9] | IC50 [10] | IC50 [11] | IC50 [12, 42] | IC50 [12, 43] | IC50 [13] | IC50 [14] | IC50 [15, 44] | IC50 [15, 45] | IC50 [16] | IC50 [17] | IC50 [18] | further results
Cc1nc(N)sc1-c1ccnc(Nc2cccc(I)c2)n1 [Compound 10, [4-(2-Amino-4-methyl-thiazol-5-yl)-pyrimidin-2-yl]-(3-iodo-phenyl)-amine] | 260 nM | 850 nM | 0.1 µM | 0.51 µM | 280 nM | > 5000 nM | 270 nM | 240 nM | 150 nM | 170 nM | 280 nM | 0.43 µM | 0.58 µM | 750 nM | 0.05 µM | 0.6 µM | 0.29 µM | 130 nM | 300 nM | 140 nM | IC50 [2]: 500 nM; IC50 [19]: 110 nM; IC50 [20]: 40 nM; IC50 [21]: > 5000 nM; IC50 [22]: 190 nM; IC50 [23]: 70 nM; IC50 [24]: 280 nM; IC50 [25]: 180 nM; IC50 [26]: > 5000 nM; IC50 [27]: 300 nM; IC50 [28]: 130 nM
Cc1nc(N)sc1-c1ccnc(Nc2ccc(CCO)cc2)n1 [Compound 15, 2-{4-[4-(2-Amino-4-methyl-thiazol-5-yl)-pyrimidin-2-ylamino]-phenyl}-ethanol] | 850 nM | 1500 nM | 0.41 µM | 3.8 µM | 690 nM | > 5000 nM | 630 nM | 1360 nM | 1350 nM | 730 nM | 580 nM | 0.93 µM | 2.84 µM | 980 nM | 0.43 µM | 0.95 µM | 3.04 µM | 230 nM | 1050 nM | 550 nM | IC50 [19]: 550 nM; IC50 [20]: 390 nM; IC50 [21]: > 5000 nM; IC50 [22]: 4740 nM; IC50 [23]: 2870 nM; IC50 [24]: 1030 nM; IC50 [25]: 600 nM; IC50 [26]: > 5000 nM; IC50 [27]: 810 nM; IC50 [28]: 140 nM
Cc1nc(C)c(-c2ccnc(Nc3ccc(N(C)C)c([N+](=O)[O-])c3)n2)s1 [Compound 25, N^4-[4-(2,4-Dimethyl-thiazol-5-yl)-pyrimidin-2-yl-]-N^1,N^1-dimethyl-2-nitro-benzene-1,4-diamine] | – | – | – | 0.3 µM | – | – | – | – | – | – | – | – | 0.35 µM | – | – | – | – | – | – | – | IC50 [29]: > 100000 nM; IC50 [30]: 61000 nM; IC50 [31]: > 100000 nM; IC50 [32]: > 100000 nM; IC50 [33]: > 100000 nM; IC50 [34]: 25000 nM; IC50 ([15]; A549, 72 h, read-out: 72-h MTT in vitro IC50 (μM) A549): 0.43 µM; IC50 [35]: 9900 nM; IC50 [36]: 900 nM; IC50 [37]: 120 nM; IC50 [38]: 1300 nM; IC50 [39]: > 100000 nM
